From patent publication US5106610A, “Method for determining the diuretic potency of candidate drugs as inhibitors of the antidiuretic hormone-elicited water channel” (Childrens Medical Center Corporation, priority 1989, dated 1992)

How the values were obtained:
ADH water channels = assay: Proton permeability (PH+) of F-dextran loaded endocytic vesicles containing ADH water channels, stopped-flow fluorescence after imposed pH gradient; format: biochemical, Bufo marinus
Source text: Endocytic vesicles from the bladder of Dominican toads were ADH stimulated and loaded with fluoroescein bound to dextran (F-dextran) following the procedures of Harris et.al., "Apical Membrane Vesicles of ADH-Stimulated Toad Bladder Are Highly Water Permeable,"Am. J. Physiol. In Press, (1989); Harris, H. W., et.al., "Fluorescent Markers to Study Membrane Retrieval in Antidiuretic Hormone-Treated Toad Urinary Bladder," Am. J. Physiol., 251:C274-C284 (1986). Briefly, the procedures were as follows.
Dominican toads (Bufo marinus), obtained from National Reagents, Bridgeport, CT, were employed. Urinary bladders of Bufo marinus were prepared and mounted on cannulas as small sacs. After a 20 minute interval of ADH stimulation (50 mU/ml), the apical surfaces of bladders were exposed to solutions containing 50 mg/ml of F-dextran (Av. Mol. Wt. 70,000 Daltons) and […], 30 Mm KCl, and […], pH 8.0, for an interval of 5 minutes followed by termination of ADH stimulation and incubation for an additional 10 minutes. The solution containing the F-dextran was then removed, the bladders rinsed to remove all extracellular F-dextran. The intermediate pellet fraction obtained from centrifugation of the cell was used. F-dextran loaded vesicles were washed repeatedly to remove F-dextran and partially purified by differential centrifugation. In the absence of ADH, no detectable fluorescence was present in this vesicle fraction despite apical membrane exposure to F-dextran.
Standard cuvette fluorescence measurements were performed using an SLM-Aminco 500C spectrofluorimeter (excitation wavelength 499 nm). Stopped-flow measurements were performed in a High Tech stopped-flow device (50 msec dead time) connected to a Photon Technologies Alphascan Fluorimeter. One syringe contained a concentrated vesicle suspension and antifluoroscein antibody while the other contained buffer with sufficient HCl to change the final extravesicular pH as indicated. Data from 3-5 determination performed on a single day were averages. Results were fitted to single exponentials and .tau. was converted to permeability using the following equation: […]
where JH + is the flux rate of protons in mole/sec, PH + is the permeability coefficient of protons in cm/sec, ΔC is the concentration gradient for protons across the vesicle membrane at the start of the experiment in mole/cm^3, and A is the surface area of a single F-dextran containing vesicle (7.1×10^-10 cm^2). See Harris, H. W., et.al., "Isolation and Characterization of Specialized Regions of Toad Urinary Bladder Apical Plasma Membrane Involved in the Water Permeability Response to Antidiuretic Hormone," J. Memb. Biol., 96:175-186 (1987). Jh + was calculated by multiplying 1/.tau. by the amount of buffer (in moles) in an individual vesicle (single vesicle volume was 1.41×10^-14 cm^3). .tau. is the mathematical term representing the time for the process to be 2/3 completed. Estimates of vesicle volume and surface area were calculated from dimensions of vesicles loaded with horseradish peroxides (HRP) instead of F-dextran.
The effect of pCMBS on the rate of pH change in F-dextran loaded vesicles was determined. The materials and procedures of Example 1 were employed, except as noted. […] The results are plotted in FIG. 3. As illustrated, preincubation of vesicles with pCMBS inhibited 54% of oH + in F-dextran loaded vesicles. Control pH + was 3.9±0.5×10^-3 cm/sec (n-5; p<0.005 compared to control; unpaired t test). […]

toad bladder [1] = details: cited from earlier work
toad bladder [2] = details: NEM pretreatment; cited from earlier work
[3] = tested on: human erythroycte membrane; details: NEM pretreatment; cited from earlier work

Structure (SMILES): O=S(=O)(O)c1cc[c]([Hg][Cl])cc1 [pCMBS, parachloromercuribenzene sulfonate]
- inhibition of oH + (proton permeability) in F-dextran loaded vesicles (ADH water channels; 1 mM pCMBS, one hour preincubation at 4° C., vesicles with 17.6 mM HEPES pH 8.0, extravesicular pH lowered to 6.0): 54%

Structure (SMILES): O=C(CCc1ccc(O)cc1)c1c(O)cc(O)cc1O [Phloretin]
- effect on ADH-stimulated urea flux in toad bladder (toad bladder [1]): inhibits
- effect on apical membrane vesicle JH + (ADH water channels; phloretin 30 min prior to assay and present during stopped flow): without effect
- PH + (proton permeability coefficient) of treated vesicles (ADH water channels; vesicles exposed to phloretin 30 min prior to assay, stopped flow in continued presence, paired studies): 2.6±0.4 ×10^-3 cm/sec

Structure (SMILES): CCN1C(=O)C=CC1=O [NEM, n-ethylmaleimide]
- inhibitory effect on water flux across the toad bladder (toad bladder [2]): no inhibitory effect
- inhibitory effect on water flux across human erythrocyte membrane [3]: no inhibitory effect
- effect on pH + compared to control (significance) (ADH water channels; NEM 2 mM, 1 h pretreatment on ice): NS compared to control
- pH + (proton permeability coefficient) after pretreatment (ADH water channels; NEM 2 mM, pretreated 1 h in HEPES buffer on ice, paired control 5.6±0.2×10^-3): 6.2±0.9×10^-3 cm/sec
